Several values for one entry are separate records, joined by “and”; a condition that tells them apart may be missing. Equal values may be shown once. Inconclusive results and toxic doses are left out. Cut-off read from the data, not from the text of the source: active = T/C of 150% or more; inactive = T/C below 125%.
Test system: L1210 leukemia ip in BDF1 mice, survival T/C
Assay: NCI In Vivo Anticancer Drug Screen. Data for tumor model L1210 Leukemia (intraperitoneal) in B6D2F1 (BDF1) mice
Details: higher = longer survival
Method in brief: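 Read-out is survival time, reported as the treated-group measurement over the vehicle-control measurement.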

[1] = endpoint: mean survival time, dose: 50.0 mg/kg/injection, schedule: Q01DX009 (ip), vehicle: Klucel (hydroxypropylcellulose) (HPC)
[2] = endpoint: mean survival time, dose: 100.0 mg/kg/injection, schedule: Q01DX009 (ip), vehicle: Klucel (hydroxypropylcellulose) (HPC)
[3] = endpoint: mean survival time, dose: 100.0 mg/kg/injection, schedule: Q04DX002 (ip), vehicle: Klucel (hydroxypropylcellulose) (HPC)
[4] = endpoint: mean survival time, dose: 200.0 mg/kg/injection, schedule: Q04DX002 (ip), vehicle: Klucel (hydroxypropylcellulose) (HPC)
[5] = endpoint: mean survival time, dose: 400.0 mg/kg/injection, schedule: Q04DX002 (ip), vehicle: Klucel (hydroxypropylcellulose) (HPC)
[6] = endpoint: mean survival time, dose: 12.5 mg/kg/injection, schedule: Q01DX009 (ip), vehicle: Klucel (hydroxypropylcellulose) (HPC)
[7] = endpoint: mean survival time, dose: 50.0 mg/kg/injection, schedule: Q04DX003 (ip), vehicle: saline
[8] = endpoint: mean survival time, dose: 100.0 mg/kg/injection, schedule: Q04DX003 (ip), vehicle: saline
[9] = endpoint: mean survival time, dose: 200.0 mg/kg/injection, schedule: Q01DX009 (ip), vehicle: Klucel (hydroxypropylcellulose) (HPC)
[10] = endpoint: mean survival time, dose: 200.0 mg/kg/injection, schedule: Q04DX003 (ip), vehicle: saline
[11] = endpoint: mean survival time, dose: 400.0 mg/kg/injection, schedule: Q04DX003 (ip), vehicle: saline
[12] = endpoint: mean survival time, dose: 100.0 mg/kg/injection, schedule: Q04DX003 (ip), vehicle: saline with Tween-80
[13] = endpoint: mean survival time, dose: 200.0 mg/kg/injection, schedule: Q04DX003 (ip), vehicle: saline with Tween-80
[14] = endpoint: mean survival time, dose: 400.0 mg/kg/injection, schedule: Q04DX003 (ip), vehicle: saline with Tween-80
[15] = endpoint: mean survival time, dose: 400.0 mg/kg/injection, schedule: Q01DX009 (ip), vehicle: Klucel (hydroxypropylcellulose) (HPC)
[16] = endpoint: mean survival time, dose: 25.0 mg/kg/injection, schedule: Q04DX003 (ip), vehicle: saline

Measured: T/C

CC(C)C1(C)C(=O)N(C)C(=O)N1Br (configuration not stated)
inactive: [1] 102 % of control | endpoint: mean survival time, dose: 50.0 mg/kg/injection, schedule: Q04DX003 (ip), vehicle: Klucel (hydroxypropylcellulose) (HPC) 100 % of control | endpoint: mean survival time, dose: 100.0 mg/kg/injection, schedule: Q01DX001 (ip), vehicle: Klucel (hydroxypropylcellulose) (HPC) 107 % of control | [2] 96 % of control | endpoint: mean survival time, dose: 100.0 mg/kg/injection, schedule: Q04DX003 (ip), vehicle: Klucel (hydroxypropylcellulose) (HPC) 97 % of control | endpoint: mean survival time, dose: 200.0 mg/kg/injection, schedule: Q01DX001 (ip), vehicle: Klucel (hydroxypropylcellulose) (HPC) 98 % of control | endpoint: mean survival time, dose: 200.0 mg/kg/injection, schedule: Q04DX003 (ip), vehicle: Klucel (hydroxypropylcellulose) (HPC) 105 % of control | endpoint: mean survival time, dose: 400.0 mg/kg/injection, schedule: Q01DX001 (ip), vehicle: Klucel (hydroxypropylcellulose) (HPC) 98 % of control

COc1cc(Nc2c3ccccc3nc3ccccc23)ccc1NS(C)(=O)=O
active: endpoint: mean survival time, dose: 10.0 mg/kg/injection, schedule: Q01DX009 (ip), vehicle: saline with Tween-80 154 % of control

CN(C)Cc1cccc(N)c1
inactive: endpoint: mean survival time, dose: 12.5 mg/kg/injection, schedule: Q01DX009 (ip), vehicle: water 102 % of control | endpoint: mean survival time, dose: 25.0 mg/kg/injection, schedule: Q01DX009 (ip), vehicle: water 100 % of control | endpoint: mean survival time, dose: 25.0 mg/kg/injection, schedule: Q04DX003 (ip), vehicle: water 104 % of control | endpoint: mean survival time, dose: 50.0 mg/kg/injection, schedule: Q01DX009 (ip), vehicle: water 100 % of control | endpoint: mean survival time, dose: 50.0 mg/kg/injection, schedule: Q04DX003 (ip), vehicle: water 95 % of control | endpoint: mean survival time, dose: 100.0 mg/kg/injection, schedule: Q04DX003 (ip), vehicle: water 96 % of control and 102 % of control

O=C(O)COc1cc(Cl)ccc1Cl
inactive: [3] 95 % of control | [4] 95 % of control | [5] 100 % of control

C=C(C)C(=O)OC (tested in a mixture with another compound)
inactive: endpoint: mean survival time, dose: 50.0 mg/kg/injection, schedule: Q04DX002 (ip), vehicle: Klucel (hydroxypropylcellulose) (HPC) 107 % of control | endpoint: mean survival time, dose: 75.0 mg/kg/injection, schedule: Q01DX001 (ip), vehicle: other 96 % of control | [3] 101 % of control | endpoint: mean survival time, dose: 150.0 mg/kg/injection, schedule: Q01DX001 (ip), vehicle: other 94 % of control | [4] 93 % of control | endpoint: mean survival time, dose: 300.0 mg/kg/injection, schedule: Q01DX001 (ip), vehicle: other 91 % of control | [5] 90 % of control

S=P(N1CC1)(N1CC1)N1CC1.[Cl-].[Cl-].[NH2-].[NH2-].[Pt+4]
inactive: endpoint: mean survival time, dose: 1.8 mg/kg/injection, schedule: Q01DX009 (ip), vehicle: saline 111 % of control and 103 % of control and 101 % of control | endpoint: mean survival time, dose: 2.7 mg/kg/injection, schedule: Q01DX009 (ip), vehicle: saline 111 % of control and 116 % of control | [6] 105 % of control and 92 % of control and 91 % of control | endpoint: mean survival time, dose: 12.5 mg/kg/injection, schedule: Q01DX009 (ip), vehicle: saline 98 % of control and 103 % of control
active: endpoint: mean survival time, dose: 3.13 mg/kg/injection, schedule: Q01DX009 (ip), vehicle: Klucel (hydroxypropylcellulose) (HPC) 150 % of control and 152 % of control | endpoint: mean survival time, dose: 4.1 mg/kg/injection, schedule: Q01DX009 (ip), vehicle: saline 164 % of control [middle of 5 runs] | endpoint: mean survival time, dose: 6.25 mg/kg/injection, schedule: Q01DX009 (ip), vehicle: Klucel (hydroxypropylcellulose) (HPC) 211 % of control and 166 % of control and 227 % of control | endpoint: mean survival time, dose: 6.25 mg/kg/injection, schedule: Q01DX009 (ip), vehicle: saline 233 % of control [middle of 4 runs] | endpoint: mean survival time, dose: 9.3 mg/kg/injection, schedule: Q01DX009 (ip), vehicle: saline 200 % of control and 277 % of control

CC12CCCCC1CC/C(=C\c1ccc(Cl)cc1)C2=O (configuration not stated)
inactive: endpoint: mean survival time, dose: 100.0 mg/kg/injection, schedule: Q01DX001 (ip), vehicle: saline 114 % of control | endpoint: mean survival time, dose: 200.0 mg/kg/injection, schedule: Q01DX001 (ip), vehicle: saline 95 % of control | endpoint: mean survival time, dose: 400.0 mg/kg/injection, schedule: Q01DX001 (ip), vehicle: saline 92 % of control

COc1ccc(C2c3cc4c(c(OC)c3CC3OCC(=O)C32)OCO4)cc1OC (configuration not stated)
inactive: [6] 110 % of control | endpoint: mean survival time, dose: 25.0 mg/kg/injection, schedule: Q01DX009 (ip), vehicle: Klucel (hydroxypropylcellulose) (HPC) 110 % of control | [1] 123 % of control | [7] 110 % of control | endpoint: mean survival time, dose: 75.0 mg/kg/injection, schedule: Q01DX001 (ip), vehicle: Klucel (hydroxypropylcellulose) (HPC) 106 % of control | [2] 121 % of control | [8] 116 % of control | endpoint: mean survival time, dose: 150.0 mg/kg/injection, schedule: Q01DX001 (ip), vehicle: Klucel (hydroxypropylcellulose) (HPC) 112 % of control | [9] 101 % of control | [10] 116 % of control | endpoint: mean survival time, dose: 300.0 mg/kg/injection, schedule: Q01DX001 (ip), vehicle: Klucel (hydroxypropylcellulose) (HPC) 104 % of control | [11] 110 % of control | endpoint: mean survival time, dose: 600.0 mg/kg/injection, schedule: Q01DX001 (ip), vehicle: Klucel (hydroxypropylcellulose) (HPC) 115 % of control | endpoint: mean survival time, dose: 800.0 mg/kg/injection, schedule: Q04DX003 (ip), vehicle: saline 118 % of control | endpoint: mean survival time, dose: 1200.0 mg/kg/injection, schedule: Q01DX001 (ip), vehicle: Klucel (hydroxypropylcellulose) (HPC) 118 % of control | endpoint: median survival time, dose: 12.5 mg/kg/injection, schedule: Q01DX009 (ip), vehicle: Klucel (hydroxypropylcellulose) (HPC) 105 % of control | endpoint: median survival time, dose: 25.0 mg/kg/injection, schedule: Q01DX009 (ip), vehicle: Klucel (hydroxypropylcellulose) (HPC) 100 % of control | endpoint: median survival time, dose: 50.0 mg/kg/injection, schedule: Q01DX009 (ip), vehicle: Klucel (hydroxypropylcellulose) (HPC) 111 % of control | endpoint: median survival time, dose: 100.0 mg/kg/injection, schedule: Q01DX009 (ip), vehicle: Klucel (hydroxypropylcellulose) (HPC) 116 % of control

O=C(NCc1ccccc1)C1C2C=CC(CC2)C1C(=O)NCc1ccccc1 (configuration not stated)
inactive: [12] 96 % of control | [13] 96 % of control | [14] 87 % of control

CC(C)C1CCC2=C(CCC3C(C)(C(=O)O)CCCC23C)C1 (configuration not stated)
inactive: endpoint: mean survival time, dose: 100.0 mg/kg/injection, schedule: Q01DX009 (ip), vehicle: saline with Tween-80 89 % of control | endpoint: mean survival time, dose: 200.0 mg/kg/injection, schedule: Q01DX009 (ip), vehicle: saline with Tween-80 91 % of control | endpoint: mean survival time, dose: 400.0 mg/kg/injection, schedule: Q01DX009 (ip), vehicle: saline with Tween-80 89 % of control

CC(=O)c1sc2sc(C(C)=O)c(NC(=S)Nc3ccccc3Cl)c2c1NC(=S)Nc1ccccc1Cl
inactive: [2] 97 % of control | [9] 96 % of control | [15] 94 % of control

COc1cc2cncc(CC(=O)c3ccc4c(c3)OCO4)c2cc1OC
inactive: [12] 106 % of control | [13] 88 % of control

CC(=O)Nc1cc(Cl)c(Nc2cc(S(=O)(=O)O)c(N)c3c2C(=O)c2ccccc2C3=O)c(Cl)c1
inactive: endpoint: mean survival time, dose: 75.0 mg/kg/injection, schedule: Q01DX001 (ip), vehicle: saline 96 % of control | endpoint: mean survival time, dose: 150.0 mg/kg/injection, schedule: Q01DX001 (ip), vehicle: saline 88 % of control

Nc1nc(SCCO)nc2nc[nH]c12
inactive: [12] 96 % of control | [13] 95 % of control | [14] 90 % of control

COC(=O)C(=O)OC(=O)C(=O)OC
inactive: [16] 104 % of control | [7] 120 % of control | [8] 92 % of control

O=[N+]([O-])c1ccc2c(c1)-c1ccccc1C2Cl (configuration not stated)
inactive: endpoint: mean survival time, dose: 100.0 mg/kg/injection, schedule: Q01DX005 (ip), vehicle: Klucel (hydroxypropylcellulose) (HPC) 94 % of control | [3] 111 % of control | endpoint: mean survival time, dose: 200.0 mg/kg/injection, schedule: Q01DX005 (ip), vehicle: Klucel (hydroxypropylcellulose) (HPC) 91 % of control | [4] 101 % of control | endpoint: mean survival time, dose: 400.0 mg/kg/injection, schedule: Q01DX005 (ip), vehicle: Klucel (hydroxypropylcellulose) (HPC) 88 % of control | [5] 96 % of control

Cc1ccc(CCN)cc1C
inactive: [16] 103 % of control | [7] 101 % of control | [8] 101 % of control and 112 % of control

O=[N+]([O-])c1ccccc1CC1c2ccccc2-c2ccccc21
inactive: [8] 96 % of control | [10] 94 % of control | [11] 93 % of control

O=C(O)c1c2ccccc2cc2ccccc12
inactive: [2] 105 % of control | [9] 107 % of control | [15] 104 % of control

Oc1cc(Cl)c(Cl)cc1Cl.[Cu+2]
inactive: endpoint: mean survival time, dose: 12.5 mg/kg/injection, schedule: Q04DX003 (ip), vehicle: gum acacia 92 % of control | endpoint: mean survival time, dose: 25.0 mg/kg/injection, schedule: Q04DX003 (ip), vehicle: gum acacia 93 % of control
